Data reported in ChEMBL document CHEMBL4665697, “Synthesis of the Major Mammalian Metabolites of THCV” (J Nat Prod, 2020).

Columns and labels:
Cannabinoid receptor 1 = Cannabinoid receptor 1 (Homo sapiens, UniProt P21554); assay: Displacement of [3H]-CP-55,940 from recombinant human CB1R expressed in HEK293 cell membranes after 90 mins; set-up: species or system Cell membrane
Cannabinoid receptor 2 = Cannabinoid receptor 2 (Homo sapiens, UniProt P34972); assay: Displacement of [3H]-CP-55,940 from recombinant human CB2R expressed in HEK293 cell membranes after 90 mins; set-up: species or system Cell membrane
Chain of Cannabinoid receptor 2 (P34972 whole entry): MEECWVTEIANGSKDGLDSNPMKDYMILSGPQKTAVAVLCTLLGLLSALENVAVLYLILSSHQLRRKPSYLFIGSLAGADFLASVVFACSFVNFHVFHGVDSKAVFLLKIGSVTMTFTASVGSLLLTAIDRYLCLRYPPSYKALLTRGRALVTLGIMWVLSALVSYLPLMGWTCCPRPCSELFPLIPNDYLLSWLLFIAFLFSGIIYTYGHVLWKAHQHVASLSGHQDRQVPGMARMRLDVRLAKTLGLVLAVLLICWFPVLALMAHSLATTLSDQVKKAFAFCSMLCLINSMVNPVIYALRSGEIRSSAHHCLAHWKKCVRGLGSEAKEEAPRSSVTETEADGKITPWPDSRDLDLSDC

Chain of Cannabinoid receptor 1 (P21554 whole entry): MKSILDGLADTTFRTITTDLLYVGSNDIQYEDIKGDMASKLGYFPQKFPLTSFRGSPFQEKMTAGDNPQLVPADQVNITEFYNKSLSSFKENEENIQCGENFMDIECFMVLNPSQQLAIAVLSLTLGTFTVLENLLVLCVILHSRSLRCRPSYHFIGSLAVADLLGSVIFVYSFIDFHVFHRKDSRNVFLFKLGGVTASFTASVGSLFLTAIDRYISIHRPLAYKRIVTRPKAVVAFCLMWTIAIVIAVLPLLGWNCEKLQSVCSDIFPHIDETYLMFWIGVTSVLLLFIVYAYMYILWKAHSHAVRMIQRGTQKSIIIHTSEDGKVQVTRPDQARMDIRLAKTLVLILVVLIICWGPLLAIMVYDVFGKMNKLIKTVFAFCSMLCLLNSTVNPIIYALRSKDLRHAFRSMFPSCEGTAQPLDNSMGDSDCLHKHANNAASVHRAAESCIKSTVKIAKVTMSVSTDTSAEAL

Compound | IC50 (Cannabinoid receptor 1) [nM] | Ki (Cannabinoid receptor 1) [nM] | IC50 (Cannabinoid receptor 2) [nM] | Ki (Cannabinoid receptor 2) [nM]
CCCc1cc(O)c2c(c1)OC(C)(C)[C@@H]1CCC(CO)=C[C@@H]21 | 22.7 | 2.5 | 29.8 | 4.7
CCCc1cc(O)c2c(c1)OC(C)(C)[C@@H]1CCC(C)=C[C@@H]21 [TETRAHYDROCANNABIVARIN] | 13.1 | 1.5 | 17.6 | 2.8
CCCc1cc(O)c2c(c1)OC(C)(C)[C@@H]1C[C@H](O)C(C)=C[C@@H]21 | 230 | 25.6 | 808 | 128
CCCc1cc(O)c2c(c1)OC(C)(C)[C@@H]1CCC(C(=O)O)=C[C@@H]21 | 1680 | 187 | 3720 | 590
CCCc1cc(O)c2c(c1)OC(C)(C)[C@@H]1C[C@@H](O)C(C)=C[C@@H]21 | > 10000 | > 10000 | > 10000 | > 10000
